Strand notation (5' to 3'): a small letter for the sugar, then the base; units joined by * are phosphorothioate-linked, units joined directly phosphodiester-linked; [ ] holds rarer units or linkages, { } end groups; capitals alone tell only the bases. e = 2'-O-(2-methoxyethyl) (MOE); k = constrained ethyl (cEt); [5mC] = 5-methylcytosine; d = 2'-deoxy (DNA)

The test system of this series is Yap1 mRNA. Kind of series: Antisense inhibition of human Yap1 in SNU-449 cells by modified oligonucleotides, single dose (Example 5, RTS36584). Particulars: Table 39; SNU-449 cells, 10,000 cells per well, free uptake, 2,000 nM oligonucleotide, approx. 48 hours; RTS36584; normalized to RIBOGREEN; Yap1 mRNA relative to untreated control. In kind it is cell-based. In a few lines: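 Plate SNU-449 cells at 10,000 per well; add 2,000 nM modified oligonucleotide without transfection reagent; after ~48 h isolate RNA, run qRT-PCR with RTS36584, normalise to RIBOGREEN and report % UTC.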
Regarding “1198370 (kT*dG*dT*d[5mC]*dT*d[5mC]*dA*dT*dG*d[5mC]*d[5mC]*kT*eT*kA*eT*kA; antisense) [Compound 1198370]”, the “YAP1 (% UTC)” value is on record as 20 % UTC. Under “1198371 (kA*dT*dT*dG*dT*d[5mC]*dT*d[5mC]*dA*dT*dG*k[5mC]*e[5mC]*kT*eT*kA; antisense) [Compound 1198371]” stands 15 % UTC. As for “1198372 (kA*dA*dT*dT*dG*dT*d[5mC]*dT*d[5mC]*dA*dT*kG*e[5mC]*k[5mC]*eT*kT; antisense) [Compound 1198372]”, the figure is 21 % UTC; as for “1198373 (kA*dA*dA*dT*dT*dG*dT*d[5mC]*dT*d[5mC]*dA*kT*eG*k[5mC]*e[5mC]*kT; antisense) [Compound 1198373]”, 40 % UTC; as for “1198374 (kG*dA*dA*dA*dT*dT*dG*dT*d[5mC]*dT*d[5mC]*kA*eT*kG*e[5mC]*k[5mC]; antisense) [Compound 1198374]”, 24 % UTC.

Consider “1198375 (kG*dG*dA*dA*dA*dT*dT*dG*dT*d[5mC]*dT*k[5mC]*eA*kT*eG*k[5mC]; antisense) [Compound 1198375]”, for which the “YAP1 (% UTC)” value turned out to be 22 % UTC. Consider “1198376 (kT*dG*dG*dA*dA*dA*dT*dT*dG*dT*d[5mC]*kT*e[5mC]*kA*eT*kG; antisense) [Compound 1198376]”, for which the “YAP1 (% UTC)” value stood at 36 % UTC. As for “1198377 (kA*dT*dG*dG*dA*dA*dA*dT*dT*dG*dT*k[5mC]*eT*k[5mC]*eA*kT; antisense) [Compound 1198377]”, the figure is 30 % UTC; as for “1198378 (kA*dT*dA*dT*dG*dG*dA*dA*dA*dT*dT*kG*eT*k[5mC]*eT*k[5mC]; antisense) [Compound 1198378]”, 39 % UTC. As for “1198379 (kA*dG*dT*dA*dT*dG*dT*dG*dG*d[5mC]*dA*kA*eT*kA*eA*kT) [Compound 1198379]”, the figure is 45 % UTC; as for “1198380 (kA*dG*dA*dG*dT*dA*dT*dG*dT*dG*dG*k[5mC]*eA*kA*eT*kA; antisense) [Compound 1198380]”, 18 % UTC. Under “1198381 (kT*dA*dG*dA*dG*dT*dA*dT*dG*dT*dG*kG*e[5mC]*kA*eA*kT; antisense) [Compound 1198381]” stands 19 % UTC. In the case of “1198382 (kT*dT*dA*dG*dA*dG*dT*dA*dT*dG*dT*kG*eG*k[5mC]*eA*kA; antisense) [Compound 1198382]”, the “YAP1 (% UTC)” value is reported as 19 % UTC. As for “1198383 (kA*dT*dT*dA*dG*dA*dG*dT*dA*dT*dG*kT*eG*kG*e[5mC]*kA; antisense) [Compound 1198383]”, the figure is 31 % UTC; as for “1198384 (kT*dA*dT*dT*dA*dG*dA*dG*dT*dA*dT*kG*eT*kG*eG*k[5mC]; antisense) [Compound 1198384]”, 6 % UTC; as for “1198385 (kA*dT*dA*dT*dT*dA*dG*dA*dG*dT*dA*kT*eG*kT*eG*kG; antisense) [Compound 1198385]”, 30 % UTC. As to “1198386 (kT*dA*dT*dA*dT*dT*dA*dG*dA*dG*dT*kA*eT*kG*eT*kG; antisense) [Compound 1198386]”, the “YAP1 (% UTC)” value is 77 % UTC. As for “1198387 (kT*d[5mC]*dT*dA*dT*dA*dT*dT*dA*dG*dA*kG*eT*kA*eT*kG; antisense) [Compound 1198387]”, the figure is 84 % UTC. As to “1198388 (kT*dA*dT*dA*dA*d[5mC]*dT*dG*dG*dG*d[5mC]*kA*eA*kA*eT*kT; antisense) [Compound 1198388]”, the “YAP1 (% UTC)” value was 90 % UTC.

As for “1198389 (kG*dG*dT*dA*dT*dA*dA*d[5mC]*dT*dG*dG*kG*e[5mC]*kA*eA*kA; antisense) [Compound 1198389]”, the “YAP1 (% UTC)” value is given as 28 % UTC. Regarding “1198390 (kA*dG*dG*dT*dA*dT*dA*dA*d[5mC]*dT*dG*kG*eG*k[5mC]*eA*kA; antisense) [Compound 1198390]”, the “YAP1 (% UTC)” value was determined as 37 % UTC.

Take “1198391 (kG*dA*dG*dG*dT*dA*dT*dA*dA*d[5mC]*dT*kG*eG*kG*e[5mC]*kA) [Compound 1198391]”: the “YAP1 (% UTC)” value came to 29 % UTC. As for “1198392 (kA*dA*d[5mC]*dA*d[5mC]*dT*dG*dA*dG*dG*dT*kA*eT*kA*eA*k[5mC]; antisense) [Compound 1198392]”, the figure is 48 % UTC; as for “1198393 (kT*dT*dA*d[5mC]*dA*dT*dT*dA*dG*dG*dA*kA*e[5mC]*kA*eA*kG; antisense) [Compound 1198393]”, 58 % UTC. As for “1198394 (kT*dT*dT*dT*dA*d[5mC]*dA*dT*dT*dA*dG*kG*eA*kA*e[5mC]*kA; antisense) [Compound 1198394]”, the figure is 63 % UTC; as for “1198395 (k[5mC]*dT*dT*dT*dT*dA*d[5mC]*dA*dT*dT*dA*kG*eG*kA*eA*k[5mC]; antisense) [Compound 1198395]”, 35 % UTC; as for “1198396 (kA*d[5mC]*dT*dT*dT*dT*dA*d[5mC]*dA*dT*dT*kA*eG*kG*eA*kA; antisense) [Compound 1198396]”, 25 % UTC. Consider “1198397 (k[5mC]*dA*d[5mC]*dT*dT*dT*dT*dA*d[5mC]*dA*dT*kT*eA*kG*eG*kA; antisense) [Compound 1198397]”, for which the “YAP1 (% UTC)” value is 17 % UTC. Under “1198398 (kG*d[5mC]*dA*dC*dT*dT*dT*dT*dA*d[5mC]*dA*kT*eT*kA*eG*kG) [Compound 1198398]” stands 18 % UTC. As for “1198399 (kA*dG*d[5mC]*dA*d[5mC]*dT*dT*dT*dT*dA*d[5mC]*kA*eT*kT*eA*kG; antisense) [Compound 1198399]”, the figure is 35 % UTC.

As for “1198400 (kA*dA*dG*d[5mC]*dA*d[5mC]*dT*dT*dT*dT*dA*k[5mC]*eA*kT*eT*kA; antisense) [Compound 1198400]”, the “YAP1 (% UTC)” value came out at 62 % UTC. Under “1198401 (kT*dT*dA*dA*dG*d[5mC]*dA*d[5mC]*dT*dT*dT*kT*eA*k[5mC]*eA*kT; antisense) [Compound 1198401]” stands 63 % UTC; under “1198402 (kG*dG*dA*dA*dG*dA*dT*d[5mC]*dT*dG*dA*kA*eA*k[5mC]*eT*k[5mC]; antisense) [Compound 1198402]”, 32 % UTC; under “1198403 (kT*dT*dG*dG*dA*dA*dG*dA*dT*d[5mC]*dT*kG*eA*kA*eA*k[5mC]) [Compound 1198403]”, 54 % UTC. Consider “1198404 (kT*dT*dT*dG*dG*dA*dA*dG*dA*dT*d[5mC]*kT*eG*kA*eA*kA) [Compound 1198404]”, for which the “YAP1 (% UTC)” value is given as 55 % UTC.

With “1198405 (k[5mC]*dT*dT*dT*dG*dG*dA*dA*dG*dA*dT*k[5mC]*eT*kG*eA*kA; antisense) [Compound 1198405]”, the “YAP1 (% UTC)” value is recorded as 36 % UTC. “1198406 (kG*d[5mC]*dT*dT*dT*dG*dG*dA*dA*dG*dA*kT*e[5mC]*kT*eG*kA; antisense) [Compound 1198406]”: the “YAP1 (% UTC)” value was 17 % UTC. In the case of “1198407 (kT*dG*d[5mC]*dT*dT*dT*dG*dG*dA*dA*dG*kA*eT*k[5mC]*eT*kG; antisense) [Compound 1198407]”, the “YAP1 (% UTC)” value worked out at 23 % UTC. For “1198408 (kG*dT*dG*d[5mC]*dT*dT*dT*dG*dG*dA*dA*kG*eA*kT*e[5mC]*kT; antisense) [Compound 1198408]”, the “YAP1 (% UTC)” value worked out at 41 % UTC.
